Columns and labels:
Assay in all cases: Dundee kinase panel
Type in all cases: biochemical
Conditions in all cases: for remaining activity at 1 µM: read-out: residual activity
[1] = biological target: T1, STK33 (Homo sapiens, UniProt Q9BYT3)
T1 construct: lines 1-140) and Reaction Biology
Experimental: (§1) Compounds were screened at 1 μM. For key hits, pIC50 values were then determined by HTRF as above. […] Stability in mouse and human liver microsomes was determined by Cyprotex.

[2] = biological target: T2, NEK6 (Homo sapiens, UniProt Q9HC98)
T2 construct: lines 1-140) and Reaction Biology
Experimental: as §1

[3] = biological target: T3, MSK1 (Homo sapiens, UniProt O75582)
T3 construct: lines 1-140) and Reaction Biology
Experimental: as §1

[4] = biological target: T4, JNK1 (Homo sapiens, UniProt P45983)
T4 construct: lines 1-140) and Reaction Biology
Experimental: as §1

[5] = biological target: T5, MAP4K3 (Homo sapiens, UniProt Q8IVH8)
T5 construct: lines 1-140) and Reaction Biology
T5 sequence (Q8IVH8 1-894): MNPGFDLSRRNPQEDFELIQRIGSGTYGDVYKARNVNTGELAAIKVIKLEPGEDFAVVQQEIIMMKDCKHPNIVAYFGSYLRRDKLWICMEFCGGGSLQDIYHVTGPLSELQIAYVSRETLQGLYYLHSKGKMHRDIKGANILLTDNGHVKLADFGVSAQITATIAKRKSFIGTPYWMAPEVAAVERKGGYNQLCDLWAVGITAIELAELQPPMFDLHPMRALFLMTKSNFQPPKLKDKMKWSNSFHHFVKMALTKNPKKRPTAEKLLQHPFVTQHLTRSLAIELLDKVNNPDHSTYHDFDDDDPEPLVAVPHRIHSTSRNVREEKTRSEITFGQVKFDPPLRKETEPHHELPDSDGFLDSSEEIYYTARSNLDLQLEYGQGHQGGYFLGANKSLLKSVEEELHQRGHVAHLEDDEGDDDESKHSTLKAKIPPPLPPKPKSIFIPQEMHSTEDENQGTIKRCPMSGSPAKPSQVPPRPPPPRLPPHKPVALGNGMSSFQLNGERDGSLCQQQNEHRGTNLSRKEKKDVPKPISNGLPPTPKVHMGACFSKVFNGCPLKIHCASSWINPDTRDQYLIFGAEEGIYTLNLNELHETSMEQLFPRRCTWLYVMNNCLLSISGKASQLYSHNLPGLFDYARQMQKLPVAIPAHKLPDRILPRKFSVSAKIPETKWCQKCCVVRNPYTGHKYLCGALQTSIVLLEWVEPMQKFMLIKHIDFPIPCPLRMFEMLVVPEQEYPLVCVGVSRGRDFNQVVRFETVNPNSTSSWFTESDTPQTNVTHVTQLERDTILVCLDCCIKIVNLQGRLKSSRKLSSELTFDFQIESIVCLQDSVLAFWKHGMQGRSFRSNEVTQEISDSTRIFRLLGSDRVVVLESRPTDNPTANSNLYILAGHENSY
Experimental: as §1

[6] = biological target: T6, MNK2 (Homo sapiens, UniProt Q9HBH9)
T6 construct: lines 1-140) and Reaction Biology
Experimental: as §1

[7] = biological target: T7, HER4 (Homo sapiens, UniProt Q15303)
T7 construct: lines 1-140) and Reaction Biology
Experimental: as §1

[8] = biological target: T8, BRK (Homo sapiens, UniProt Q13882)
T8 construct: lines 1-140) and Reaction Biology
Experimental: as §1

[9] = biological target: T9, GCK (Homo sapiens, UniProt Q12851)
T9 construct: lines 1-140) and Reaction Biology
T9 sequence (Q12851 1-820): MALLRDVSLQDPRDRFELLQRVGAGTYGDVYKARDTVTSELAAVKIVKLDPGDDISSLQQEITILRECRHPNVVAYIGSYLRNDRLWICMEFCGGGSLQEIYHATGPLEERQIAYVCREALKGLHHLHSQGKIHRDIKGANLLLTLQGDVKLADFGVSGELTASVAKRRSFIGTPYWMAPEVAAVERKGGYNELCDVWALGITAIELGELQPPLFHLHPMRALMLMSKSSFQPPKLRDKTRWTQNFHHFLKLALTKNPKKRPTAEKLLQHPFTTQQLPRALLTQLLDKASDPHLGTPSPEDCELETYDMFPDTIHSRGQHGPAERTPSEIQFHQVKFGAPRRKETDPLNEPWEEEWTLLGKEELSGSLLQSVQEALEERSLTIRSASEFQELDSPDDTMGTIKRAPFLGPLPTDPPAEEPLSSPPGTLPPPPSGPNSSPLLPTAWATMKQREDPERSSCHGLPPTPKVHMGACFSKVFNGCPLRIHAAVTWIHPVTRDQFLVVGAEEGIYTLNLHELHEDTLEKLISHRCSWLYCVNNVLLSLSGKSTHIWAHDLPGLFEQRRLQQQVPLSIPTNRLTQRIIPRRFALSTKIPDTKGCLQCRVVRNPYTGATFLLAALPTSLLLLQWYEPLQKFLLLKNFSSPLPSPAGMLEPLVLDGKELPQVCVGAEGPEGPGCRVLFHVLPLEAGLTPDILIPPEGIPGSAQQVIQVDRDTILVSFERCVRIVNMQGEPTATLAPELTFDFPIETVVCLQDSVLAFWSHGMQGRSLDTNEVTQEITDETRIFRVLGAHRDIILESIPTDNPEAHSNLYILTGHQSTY
Experimental: as §1

[10] = biological target: T10, Aurora B (Homo sapiens, UniProt Q96GD4)
T10 construct: lines 1-140) and Reaction Biology
Experimental: as §1

[11] = biological target: T11, CK1γ2 (Homo sapiens, UniProt P78368)
T11 construct: lines 1-140) and Reaction Biology
Experimental: as §1

[12] = biological target: T12, EPH-A4 (Homo sapiens, UniProt P54764)
T12 construct: lines 1-140) and Reaction Biology
Experimental: as §1

[13] = biological target: T13, MLK1 (Homo sapiens, UniProt P80192)
T13 construct: lines 1-140) and Reaction Biology
Experimental: as §1

[14] = biological target: T14, CLK2 (Homo sapiens, UniProt P49760)
T14 construct: lines 1-140) and Reaction Biology
Experimental: as §1

[15] = biological target: T15, RSK2 (Homo sapiens, UniProt P51812)
T15 construct: lines 1-140) and Reaction Biology
Experimental: as §1

T15 sequence (P51812 whole entry): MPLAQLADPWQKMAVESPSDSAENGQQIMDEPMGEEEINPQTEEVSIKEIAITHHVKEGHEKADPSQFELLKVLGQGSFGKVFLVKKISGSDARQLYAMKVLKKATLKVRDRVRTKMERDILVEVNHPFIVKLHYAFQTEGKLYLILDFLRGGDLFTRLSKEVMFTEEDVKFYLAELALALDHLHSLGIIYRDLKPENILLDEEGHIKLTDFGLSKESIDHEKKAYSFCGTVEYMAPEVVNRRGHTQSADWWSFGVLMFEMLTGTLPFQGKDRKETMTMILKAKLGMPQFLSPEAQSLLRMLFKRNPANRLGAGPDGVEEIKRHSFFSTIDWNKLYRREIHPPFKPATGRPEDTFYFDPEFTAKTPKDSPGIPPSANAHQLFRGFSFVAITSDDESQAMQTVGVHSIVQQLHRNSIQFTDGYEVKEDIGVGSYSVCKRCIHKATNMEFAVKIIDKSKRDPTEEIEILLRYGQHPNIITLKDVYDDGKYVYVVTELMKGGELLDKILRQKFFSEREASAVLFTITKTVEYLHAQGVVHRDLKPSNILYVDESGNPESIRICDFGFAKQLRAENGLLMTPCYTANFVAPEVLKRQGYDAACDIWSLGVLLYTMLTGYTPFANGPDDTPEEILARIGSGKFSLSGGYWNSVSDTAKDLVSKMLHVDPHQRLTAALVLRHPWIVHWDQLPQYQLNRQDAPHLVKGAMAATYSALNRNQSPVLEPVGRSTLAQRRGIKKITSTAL
T3 sequence (O75582 whole entry): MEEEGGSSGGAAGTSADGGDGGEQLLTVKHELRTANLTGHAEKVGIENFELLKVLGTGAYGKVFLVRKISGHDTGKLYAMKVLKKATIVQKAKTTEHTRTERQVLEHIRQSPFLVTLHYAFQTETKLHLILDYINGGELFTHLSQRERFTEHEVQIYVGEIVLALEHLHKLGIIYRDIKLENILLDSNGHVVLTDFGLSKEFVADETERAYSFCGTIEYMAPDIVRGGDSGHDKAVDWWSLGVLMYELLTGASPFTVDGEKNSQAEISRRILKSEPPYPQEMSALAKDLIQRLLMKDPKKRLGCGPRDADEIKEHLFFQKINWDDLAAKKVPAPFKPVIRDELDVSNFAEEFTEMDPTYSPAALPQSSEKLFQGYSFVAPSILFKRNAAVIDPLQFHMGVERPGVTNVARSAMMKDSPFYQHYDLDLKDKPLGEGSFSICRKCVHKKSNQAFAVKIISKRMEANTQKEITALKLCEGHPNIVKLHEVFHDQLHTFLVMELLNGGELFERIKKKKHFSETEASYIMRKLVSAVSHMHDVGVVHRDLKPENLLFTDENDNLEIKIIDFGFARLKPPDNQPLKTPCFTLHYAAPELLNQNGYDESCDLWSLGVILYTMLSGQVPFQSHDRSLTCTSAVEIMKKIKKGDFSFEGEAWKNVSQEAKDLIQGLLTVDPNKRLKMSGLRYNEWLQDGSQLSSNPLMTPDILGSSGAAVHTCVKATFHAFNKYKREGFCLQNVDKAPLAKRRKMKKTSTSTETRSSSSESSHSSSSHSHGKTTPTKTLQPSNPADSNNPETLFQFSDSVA
T2 sequence (Q9HC98 whole entry): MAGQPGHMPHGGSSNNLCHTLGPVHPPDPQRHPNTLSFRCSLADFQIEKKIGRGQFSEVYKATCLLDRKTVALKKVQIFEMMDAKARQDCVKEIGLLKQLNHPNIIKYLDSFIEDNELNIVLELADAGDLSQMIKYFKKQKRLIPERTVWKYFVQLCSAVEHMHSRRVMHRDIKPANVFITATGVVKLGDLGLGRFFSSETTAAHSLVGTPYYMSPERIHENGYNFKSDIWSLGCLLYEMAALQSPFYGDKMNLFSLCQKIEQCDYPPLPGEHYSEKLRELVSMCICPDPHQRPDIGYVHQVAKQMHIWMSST
T8 sequence (Q13882 whole entry): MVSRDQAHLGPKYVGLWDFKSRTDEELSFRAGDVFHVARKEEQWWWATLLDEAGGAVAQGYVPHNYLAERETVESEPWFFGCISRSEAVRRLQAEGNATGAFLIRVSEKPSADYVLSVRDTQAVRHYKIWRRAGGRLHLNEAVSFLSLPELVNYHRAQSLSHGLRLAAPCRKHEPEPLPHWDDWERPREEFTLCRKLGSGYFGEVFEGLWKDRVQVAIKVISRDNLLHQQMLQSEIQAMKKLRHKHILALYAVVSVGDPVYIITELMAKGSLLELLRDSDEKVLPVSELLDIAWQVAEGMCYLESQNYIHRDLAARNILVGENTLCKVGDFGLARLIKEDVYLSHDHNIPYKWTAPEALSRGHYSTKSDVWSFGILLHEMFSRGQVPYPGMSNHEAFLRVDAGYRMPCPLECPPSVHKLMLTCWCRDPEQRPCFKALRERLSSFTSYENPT
T11 sequence (P78368 whole entry): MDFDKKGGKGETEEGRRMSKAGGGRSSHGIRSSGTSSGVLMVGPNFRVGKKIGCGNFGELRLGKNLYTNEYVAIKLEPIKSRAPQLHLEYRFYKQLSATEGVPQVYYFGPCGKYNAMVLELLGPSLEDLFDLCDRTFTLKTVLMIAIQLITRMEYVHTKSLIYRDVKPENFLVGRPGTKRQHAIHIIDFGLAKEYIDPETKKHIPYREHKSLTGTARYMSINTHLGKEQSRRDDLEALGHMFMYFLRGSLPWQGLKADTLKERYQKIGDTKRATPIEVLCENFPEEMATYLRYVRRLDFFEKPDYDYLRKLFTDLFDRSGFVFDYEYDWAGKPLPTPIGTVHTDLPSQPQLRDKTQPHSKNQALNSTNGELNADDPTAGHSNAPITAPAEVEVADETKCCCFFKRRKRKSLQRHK
T4 sequence (P45983 whole entry): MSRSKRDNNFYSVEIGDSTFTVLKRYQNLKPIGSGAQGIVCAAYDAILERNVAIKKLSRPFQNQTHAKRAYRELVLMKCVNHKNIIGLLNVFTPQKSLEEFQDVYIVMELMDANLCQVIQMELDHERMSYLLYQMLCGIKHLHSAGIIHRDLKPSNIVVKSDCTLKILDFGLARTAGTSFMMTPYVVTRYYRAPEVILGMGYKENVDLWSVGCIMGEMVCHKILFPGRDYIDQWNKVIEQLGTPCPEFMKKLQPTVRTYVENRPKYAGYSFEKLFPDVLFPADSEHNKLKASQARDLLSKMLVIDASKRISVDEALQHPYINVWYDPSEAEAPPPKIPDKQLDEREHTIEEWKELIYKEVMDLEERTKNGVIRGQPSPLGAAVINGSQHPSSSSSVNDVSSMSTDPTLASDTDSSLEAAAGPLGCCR
T13 sequence (P80192 whole entry): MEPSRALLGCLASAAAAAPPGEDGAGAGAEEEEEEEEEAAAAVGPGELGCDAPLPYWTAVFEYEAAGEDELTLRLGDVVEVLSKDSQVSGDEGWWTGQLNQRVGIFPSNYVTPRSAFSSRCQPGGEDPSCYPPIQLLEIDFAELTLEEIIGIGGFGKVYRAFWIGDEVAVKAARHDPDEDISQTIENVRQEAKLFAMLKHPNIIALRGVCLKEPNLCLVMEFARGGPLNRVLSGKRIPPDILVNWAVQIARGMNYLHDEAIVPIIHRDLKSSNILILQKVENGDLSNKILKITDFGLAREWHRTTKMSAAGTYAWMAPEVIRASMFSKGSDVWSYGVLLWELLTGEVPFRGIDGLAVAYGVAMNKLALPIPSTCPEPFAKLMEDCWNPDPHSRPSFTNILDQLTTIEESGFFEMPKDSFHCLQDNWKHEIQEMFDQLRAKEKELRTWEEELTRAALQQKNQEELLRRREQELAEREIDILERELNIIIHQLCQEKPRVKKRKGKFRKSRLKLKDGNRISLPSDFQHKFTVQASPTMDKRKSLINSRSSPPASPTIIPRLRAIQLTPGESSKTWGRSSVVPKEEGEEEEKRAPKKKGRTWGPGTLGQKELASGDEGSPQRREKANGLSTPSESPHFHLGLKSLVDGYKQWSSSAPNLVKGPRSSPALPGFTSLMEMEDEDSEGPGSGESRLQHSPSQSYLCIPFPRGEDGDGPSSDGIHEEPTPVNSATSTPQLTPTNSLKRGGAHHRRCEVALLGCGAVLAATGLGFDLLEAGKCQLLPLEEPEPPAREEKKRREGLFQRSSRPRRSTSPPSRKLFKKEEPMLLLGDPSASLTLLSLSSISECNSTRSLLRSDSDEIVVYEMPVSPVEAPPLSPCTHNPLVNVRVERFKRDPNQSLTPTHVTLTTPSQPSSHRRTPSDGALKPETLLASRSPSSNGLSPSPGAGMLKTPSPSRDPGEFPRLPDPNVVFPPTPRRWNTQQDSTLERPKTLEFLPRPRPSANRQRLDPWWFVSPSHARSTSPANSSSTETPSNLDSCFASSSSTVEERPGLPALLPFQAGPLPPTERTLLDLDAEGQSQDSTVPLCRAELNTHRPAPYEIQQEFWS
T6 sequence (Q9HBH9 whole entry): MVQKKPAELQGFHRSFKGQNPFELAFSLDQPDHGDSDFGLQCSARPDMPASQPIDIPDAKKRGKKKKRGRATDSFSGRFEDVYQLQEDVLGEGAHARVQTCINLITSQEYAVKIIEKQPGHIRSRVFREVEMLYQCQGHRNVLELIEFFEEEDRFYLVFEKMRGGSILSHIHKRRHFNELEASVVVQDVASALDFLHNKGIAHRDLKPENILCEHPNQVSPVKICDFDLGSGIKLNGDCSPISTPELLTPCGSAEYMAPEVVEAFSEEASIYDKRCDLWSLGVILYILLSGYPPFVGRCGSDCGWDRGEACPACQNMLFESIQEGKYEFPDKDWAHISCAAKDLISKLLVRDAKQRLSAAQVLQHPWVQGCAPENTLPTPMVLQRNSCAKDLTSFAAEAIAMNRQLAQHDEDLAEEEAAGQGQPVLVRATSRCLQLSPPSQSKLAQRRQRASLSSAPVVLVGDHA

O=C1Cc2c([nH]c3ccc(Br)cc23)-c2ccccc2N1 [Kenpaullone]
remaining activity at 1 µM [1]: 92%
remaining activity at 1 µM [2]: 99%
remaining activity at 1 µM [3]: 90%
remaining activity at 1 µM [4]: 100%
remaining activity at 1 µM [5]: 14%
remaining activity at 1 µM [6]: 125%
remaining activity at 1 µM [7]: 85%
remaining activity at 1 µM [8]: 97%
remaining activity at 1 µM [9]: 95%
remaining activity at 1 µM [10]: 46%
remaining activity at 1 µM [11]: 81%
remaining activity at 1 µM [12]: 96%
remaining activity at 1 µM [13]: 99%
remaining activity at 1 µM [14]: 109%

COCCOc1ccc(-c2cn(-c3ccccc3)c3nc[nH]c(=O)c23)cc1 [DMX-5804, 5-[4-(2-methoxy-ethoxy)-phenyl]-7-phenyl-3,7-dihydro-pyrrolo[2,3-d]pyrimidin-4-one]
remaining activity at 1 µM [1]: 97%
remaining activity at 1 µM [2]: 101%
remaining activity at 1 µM [3]: 121%
remaining activity at 1 µM [4]: 122%
remaining activity at 1 µM [5]: 41%
remaining activity at 1 µM [6]: 111%
remaining activity at 1 µM [7]: 106%
remaining activity at 1 µM [8]: 88%
remaining activity at 1 µM [9]: 36%
remaining activity at 1 µM [10]: 29%
remaining activity at 1 µM [15]: 93%
remaining activity at 1 µM [11]: 103%
remaining activity at 1 µM [12]: 105%
remaining activity at 1 µM [13]: 9%
remaining activity at 1 µM [14]: 73%

O=C1Nc2ccc(I)cc2/C1=C/c1cc(Br)c(O)c(Br)c1 [GW5074]
remaining activity at 1 µM [1]: 71%
remaining activity at 1 µM [2]: 82%
remaining activity at 1 µM [3]: 74%
remaining activity at 1 µM [4]: 70%
remaining activity at 1 µM [5]: 31%
remaining activity at 1 µM [6]: 95%
remaining activity at 1 µM [7]: 68%
remaining activity at 1 µM [8]: 77%
remaining activity at 1 µM [9]: 60%
remaining activity at 1 µM [10]: 29%
remaining activity at 1 µM [15]: 49%
remaining activity at 1 µM [11]: 68%
remaining activity at 1 µM [12]: 91%
remaining activity at 1 µM [13]: 85%
remaining activity at 1 µM [14]: 53%

Nc1ncc(C(=O)NC2CN(C(=O)C3CC3)C2)c2ccc(-c3cccc(F)c3)nc12 [GNE-495]
residual activity ([1]; 1 μM): 94%
residual activity ([2]; 1 μM): 111%
residual activity ([3]; 1 μM): 69%
residual activity ([4]; 1 μM): 63%
residual activity ([5]; 1 μM): 7%
residual activity ([6]; 1 μM): 64%
residual activity ([7]; 1 μM): 98%
residual activity ([8]; 1 μM): 94%
residual activity ([9]; 1 μM): 18%
residual activity ([10]; 1 μM): 46%
residual activity ([15]; 1 μM): 62%
residual activity ([11]; 1 μM): 107%
residual activity ([12]; 1 μM): 72%
residual activity ([13]; 1 μM): 25%
residual activity ([14]; 1 μM): 87%

Oc1ncnc2c1c(-c1ccccc1)cn2-c1ccccc1 [F1386-0303, 5,7-diphenyl-7H-pyrrolo[2,3-d]pyrimidin-4-ol]
remaining activity at 1 µM [1]: 99%
remaining activity at 1 µM [2]: 128%
remaining activity at 1 µM [3]: 102%
remaining activity at 1 µM [4]: 99%
remaining activity at 1 µM [5]: 84%
remaining activity at 1 µM [6]: 109%
remaining activity at 1 µM [7]: 82%
remaining activity at 1 µM [8]: 108%
remaining activity at 1 µM [9]: 39%
remaining activity at 1 µM [10]: 85%
remaining activity at 1 µM [15]: 114%
remaining activity at 1 µM [11]: 106%
remaining activity at 1 µM [12]: 92%
remaining activity at 1 µM [13]: 43%
remaining activity at 1 µM [14]: 94%

From PMC6458995, “MAP4K4 Inhibition Promotes Survival of Human Stem Cell-Derived Cardiomyocytes and Reduces Infarct Size In Vivo” (Cell Stem Cell, 2019)
